As usually defined, the IC50 is the point on the concentration scale where inhibition reaches its midpoint.

In one experiment the target is IDH1 R132H (Homo sapiens, UniProt O75874, R132H). As to the kind of experiment: Assay for IDH1 R132H inhibitors (NADPH/aKG, resazurin detection). In kind it is biochemical. Conditions: enzyme assay of Example 12; read-out: IDH1R132H IC50. The procedure, abridged:
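Read-out is resorufin fluorescence (Ex544/Em590) 5 min after adding a 30 μM resazurin detection mix. Before that, mutant enzyme (0.2 μg/ml in its mix) ran 50 min at room temperature with compound, 8 uM NADPH and 2 mM aKG (mix levels) in Tris pH 7.5 with NaCl, MgCl2, BSA.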

A further experiment concerns HT1080 cells. Nature of the experiment: Cellular assay for IDH1m inhibitors: inhibition of 2-HG production (LC-MS, 48 hours) in HT1080 cells. As to conditions: Homo sapiens, HT-1080; inhibition of 2-HG production, HT1080 cells; read-out: HT1080 IC50. Type of experiment: cell-based. The procedure, abridged: (§1)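 Inhibition of 2-HG production was assessed in cells seeded at 5000/well and exposed to compound for 48 h (final DMSO 0.2%). Supernatant 2-HG was analysed by LC-MS.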

Another experiment has as its system U87MG cells. Nature of the experiment: Cellular assay for IDH1m inhibitors: inhibition of 2-HG production (LC-MS, 48 hours) in U87MG cells. In kind it is cell-based. As to conditions: Homo sapiens, U-87 MG, inhibition of 2-HG production, U87R132H cells; read-out: U87R132H IC50. In a few lines:
as §1

The structures appear in SMILES notation.

Chain of IDH1 R132H (O75874 whole entry R132H): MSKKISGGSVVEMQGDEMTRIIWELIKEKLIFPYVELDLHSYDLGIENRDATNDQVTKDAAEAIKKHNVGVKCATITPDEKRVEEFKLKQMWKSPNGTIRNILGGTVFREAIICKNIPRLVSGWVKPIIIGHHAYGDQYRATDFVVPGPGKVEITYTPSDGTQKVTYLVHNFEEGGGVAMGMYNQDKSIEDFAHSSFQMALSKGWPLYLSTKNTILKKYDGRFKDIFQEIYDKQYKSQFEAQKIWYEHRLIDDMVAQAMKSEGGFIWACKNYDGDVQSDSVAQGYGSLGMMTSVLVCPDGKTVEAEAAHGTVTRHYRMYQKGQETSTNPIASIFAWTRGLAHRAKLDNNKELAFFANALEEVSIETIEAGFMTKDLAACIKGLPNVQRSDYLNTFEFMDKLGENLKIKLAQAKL

On to `C=Cc1cc(-c2cc(C#N)c(N3CCN(C(=O)CCO)[C@H](C)C3)nc2C2CC2)c2ccccc2n1` [Compound 591, (R)-6-cyclopropyl-2-(4-(3-hydroxypropanoyl)-3-methylpiperazin-1-yl)-5-(2-vinylquinolin-4-yl)nicotinonitrile], for which the IC50 on IDH1 R132H, in the experiment on HT1080 cells and with U87MG cells was less than 0.5 µM in each case.

With `C=Cc1cc(-c2cc(C#N)c(N3CCN(C(=O)CCOC)[C@H](C)C3)nc2C2CC2)c2ccccc2n1` [Compound 592, (R)-6-cyclopropyl-2-(4-(3-methoxypropanoyl)-3-methylpiperazin-1-yl)-5-(2-vinylquinolin-4-yl)nicotinonitrile], the IC50 on IDH1 R132H, in the experiment on HT1080 cells and with U87MG cells was less than 0.5 µM in each case.

`C=Cc1cc(-c2cc(C#N)c(N3CCN(C(=O)C[C@H](C)O)[C@H](C4CC4)C3)nc2C2CC2)ccn1` [Compound 595, 2-cyclopropyl-6-((R)-3-cyclopropyl-4-((S)-3-hydroxybutanoyl)piperazin-1-yl)-2′-vinyl-3,4′-bipyridine-5-carbonitrile]: the IC50 at IDH1 R132H, in the experiment on HT1080 cells and in the experiment with U87MG cells was less than 0.5 µM each time.

Take `C=Cc1cc(-c2cc(C#N)c(N3CCN(C(=O)CCOC)[C@H](C)C3)nc2C2CC2)ncn1` [Compound 597, (R)-6-cyclopropyl-2-(4-(3-methoxypropanoyl)-3-methylpiperazin-1-yl)-5-(6-vinylpyrimidin-4-yl)nicotinonitrile]: the half-inhibitory concentration (IC50) on IDH1 R132H, in the experiment with HT1080 cells and with U87MG cells was less than 0.5 µM each time.

Consider `C=Cc1cc(-c2cc(C#N)c(N3CCN(C(=O)CCOC)[C@H](C)C3)nc2C2CC2)c2cccnc2n1` [Compound 599, (R)-6-cyclopropyl-2-(4-(3-methoxypropanoyl)-3-methylpiperazin-1-yl)-5-(2-vinyl-1,8-naphthyridin-4-yl)nicotinonitrile], for which the IC50 on IDH1 R132H, in the experiment with HT1080 cells and in the experiment on U87MG cells was less than 0.5 µM each time.

Consider `C=Cc1ncc2c(-c3cc(C#N)c(N4CCN(C(=O)CCOC)[C@H](C)C4)nc3C3CC3)cccc2n1` [Compound 603, (R)-6-cyclopropyl-2-(4-(3-methoxypropanoyl)-3-methylpiperazin-1-yl)-5-(2-vinylquinazolin-5-yl)nicotinonitrile], for which the IC50 on IDH1 R132H, in the experiment on HT1080 cells and with U87MG cells was less than 0.5 µM each time.

`C=Cc1cnc2c(-c3cc(C#N)c(N4CCN(C(=O)CCOC)[C@H](C(C)C)C4)nc3C3CC3)cccc2n1` [Compound 605, (R)-6-cyclopropyl-2-(3-isopropyl-4-(3-methoxypropanoyl)piperazin-1-yl)-5-(2-vinylquinoxalin-5-yl)nicotinonitrile]: the IC50 at IDH1 R132H, in the experiment on HT1080 cells and in the experiment on U87MG cells was less than 0.5 µM in each case.

Consider `C=Cc1ccc2c(-c3cc(C#N)c(N4CCN(C(=O)CCOC)[C@H](C)C4)nc3C3CC3)cccc2n1` [Compound 608, (R)-6-cyclopropyl-2-(4-(3-methoxypropanoyl)-3-methylpiperazin-1-yl)-5-(2-vinylquinolin-5-yl)nicotinonitrile], for which the IC50 at IDH1 R132H, with HT1080 cells and in the experiment with U87MG cells was less than 0.5 µM in each case.

`C=Cc1cc(-c2cc(C#N)c(N3CCN(C(=O)CCO)[C@H](C)C3)nc2C2CC2)c2ccncc2n1` [Compound 609, (R)-6-cyclopropyl-2-(4-(3-hydroxypropanoyl)-3-methylpiperazin-1-yl)-5-(2-vinyl-1,7-naphthyridin-4-yl)nicotinonitrile]: the IC50 on IDH1 R132H, in the experiment with HT1080 cells and with U87MG cells was less than 0.5 µM each time.

As for `C#CC(=O)N1CC=C(c2cc(C#N)c(N3CCN(C(=O)C4CC4)[C@H](C)C3)nc2C2CC2)C1` [Compound 610, (R)-2-(4-(cyclopropanecarbonyl)-3-methylpiperazin-1-yl)-6-cyclopropyl-5-(1-propioloyl-2,5-dihydro-1H-pyrrol-3-yl)nicotinonitrile], the IC50 on IDH1 R132H, in the experiment on HT1080 cells and in the experiment with U87MG cells was less than 0.5 µM throughout.

Turning to `C=Cc1cc(-c2cc(C#N)c(N3CCN(C(=O)CCOC)[C@H](C(C)C)C3)nc2C2CC2)c2ccncc2n1` [Compound 611, (R)-6-cyclopropyl-2-(3-isopropyl-4-(3-methoxypropanoyl)piperazin-1-yl)-5-(2-vinyl-1,7-naphthyridin-4-yl)nicotinonitrile], the IC50 at IDH1 R132H, in the experiment on HT1080 cells and in the experiment on U87MG cells was less than 0.5 µM each time.

Turning to `C=CC(=O)N1CC=C(c2cc(C#N)c(N3CCN(C(=O)C4CC4)[C@H](C)C3)nc2C2CC2)C1` [Compound 612, (R)-5-(1-acryloyl-2,5-dihydro-1H-pyrrol-3-yl)-2-(4-(cyclopropanecarbonyl)-3-methylpiperazin-1-yl)-6-cyclopropylnicotinonitrile], the IC50 on IDH1 R132H, in the experiment with HT1080 cells and in the experiment on U87MG cells was less than 0.5 µM in each case.

Take `C=Cc1cc(-c2cc(C#N)c(N3CCN(C(=O)C4CC4)[C@H](C4CC4)C3)nc2C2CC2)cnn1` [Compound 613, (R)-2-(4-(cyclopropanecarbonyl)-3-cyclopropylpiperazin-1-yl)-6-cyclopropyl-5-(6-vinylpyridazin-4-yl)nicotinonitrile]: the IC50 at IDH1 R132H, with HT1080 cells and with U87MG cells was less than 0.5 µM in each case.

Turning to `C=Cc1cc(-c2cc(C#N)c(N3CCN(C(=O)CCOC)[C@H](C)C3)nc2C2CC2)cnn1` [Compound 615, (R)-6-cyclopropyl-2-(4-(3-methoxypropanoyl)-3-methylpiperazin-1-yl)-5-(6-vinylpyridazin-4-yl)nicotinonitrile], the IC50 at IDH1 R132H, in the experiment with HT1080 cells and in the experiment with U87MG cells was less than 0.5 µM throughout.

Consider `C=Cc1cc(Nc2cc(C#N)c(N3CCN(C(=O)CCO)[C@H](C)C3)nc2C2CC2)ncn1` [Compound 617, (R)-6-cyclopropyl-2-(4-(3-hydroxypropanoyl)-3-methylpiperazin-1-yl)-5-(6-vinylpyrimidin-4-ylamino)nicotinonitrile], for which the IC50 on IDH1 R132H, in the experiment with HT1080 cells and in the experiment with U87MG cells was less than 0.5 µM in each case.

Turning to `C=Cc1cnc2c(-c3cc(C#N)c(N4CCN(C(=O)CCO)[C@H](C)C4)nc3C3CC3)cccc2n1` [Compound 618, (R)-6-cyclopropyl-2-(4-(3-hydroxypropanoyl)-3-methylpiperazin-1-yl)-5-(2-vinylquinoxalin-5-yl)nicotinonitrile], the IC50 on IDH1 R132H, in the experiment with HT1080 cells and in the experiment with U87MG cells was less than 0.5 µM each time.

Take `C=Cc1cc(-c2cc(C#N)c(N3CCN(C(=O)CCO)[C@H](C)C3)nc2C2CC2)ncn1` [Compound 621, (R)-6-cyclopropyl-2-(4-(3-hydroxypropanoyl)-3-methylpiperazin-1-yl)-5-(6-vinylpyrimidin-4-yl)nicotinonitrile]: the IC50 is less than 0.5 µM on IDH1 R132H, less than 0.5 µM in the experiment on HT1080 cells and 0.5 to 1 µM with U87MG cells.

Turning to `C=Cc1cc(-c2cc(C#N)c(N3CCN(C(=O)CCO)[C@H](C)C3)nc2C2CC2)c2cccnc2n1` [Compound 625, (R)-6-cyclopropyl-2-(4-(3-hydroxypropanoyl)-3-methylpiperazin-1-yl)-5-(2-vinyl-1,8-naphthyridin-4-yl)nicotinonitrile], the IC50 at IDH1 R132H, in the experiment on HT1080 cells and in the experiment on U87MG cells was less than 0.5 µM in each case.

Regarding `C=Cc1cc(-c2cc(C#N)c(N3CCN(C(=O)CCOC)[C@H](C(C)C)C3)nc2C2CC2)c2cccnc2n1` [Compound 626, (R)-6-cyclopropyl-2-(3-isopropyl-4-(3-methoxypropanoyl)piperazin-1-yl)-5-(2-vinyl-1,8-naphthyridin-4-yl)nicotinonitrile], the IC50 on IDH1 R132H, with HT1080 cells and in the experiment with U87MG cells was less than 0.5 µM throughout.

Turning to `C=Cc1cc(-c2c(C3CC3)nc(N3CCN(C(=O)CCOC)[C@H](C)C3)c(C#N)c2C)ncn1` [Compound 627, (R)-6-cyclopropyl-2-(4-(3-methoxypropanoyl)-3-methylpiperazin-1-yl)-4-methyl-5-(6-vinylpyrimidin-4-yl)nicotinonitrile], the IC50 at IDH1 R132H, in the experiment with HT1080 cells and in the experiment with U87MG cells was less than 0.5 µM in each case.

On to `C=Cc1cc(-c2c(C3CC3)nc(N3CCN(C(=O)CCOC)[C@H](C)C3)c(C#N)c2C)ccn1` [Compound 628, (R)-2-cyclopropyl-6-(4-(3-methoxypropanoyl)-3-methylpiperazin-1-yl)-4-methyl-2′-vinyl-[3,4′-bipyridine]-5-carbonitrile], for which the half-maximal inhibitory concentration (IC50) at IDH1 R132H, in the experiment on HT1080 cells and in the experiment with U87MG cells was less than 0.5 µM in each case.

Turning to `C=Cc1cc(-c2cc(C#N)c(N3CCN(C(=O)CCO)[C@H](C(C)C)C3)nc2C2CC2)c2cccnc2n1` [Compound 629, (R)-6-cyclopropyl-2-(4-(3-hydroxypropanoyl)-3-isopropylpiperazin-1-yl)-5-(2-vinyl-1,8-naphthyridin-4-yl)nicotinonitrile], the IC50 at IDH1 R132H, in the experiment with HT1080 cells and with U87MG cells was less than 0.5 µM in each case.

On to `C=Cc1cc(-c2cc(C#N)c(N3CCN(C(=O)CCOC)[C@H](C(C)C)C3)nc2C2CC2)ccn1` [Compound 631, (R)-2-cyclopropyl-6-(3-isopropyl-4-(3-methoxypropanoyl)piperazin-1-yl)-2′-vinyl-3,4′-bipyridine-5-carbonitrile], for which the IC50 on IDH1 R132H, with HT1080 cells and with U87MG cells was less than 0.5 µM throughout.
